Data from US20120190613A1, “ECHINOCANDIN DERIVATIVES” (priority 2009, published 2012).
Values after ≈ are worked out from the molar mass of the structure shown. Where two headings read alike, the source gives them in different places. Marks after values point to notes of the source that are not given here.

What was measured:
[1] = system: C. albicans 104 ATCC 90028; assay: MIC by broth microdilution against C. albicans; format: cell-based
Procedure: (§1) MIC values (μg/mL) of echinocandin class compounds of the invention against various Candida and Aspergillus species were obtained as follows. Test organisms were obtained from the American Type Culture Collection (Manassas, Va.). The isolates were maintained at −80 ° C., then thawed and sub-cultured one day prior to testing (seven days for Aspergillus strains).
(§2) The mouse serum was heat-inactivated for 30 minutes at 56° C., and filtered through a 0.2 μm low protein binding filter unit prior to use.
(§3) MIC values were determined using broth microdilution. The wells of the daughter plates ultimately contained 180 μL of RPMI-1640 medium with and without mouse serum, 10 μL of drug solution, and 10 μL of yeast or fungal inoculum.
(§4) Prior to susceptibility testing, fungal isolates were removed from frozen storage, thawed at room temperature, and subcultured to Potato Dextrose Agar. The Candida strains were incubated overnight at 35° C. and the Aspergillus strains for 7 days at 25° C. Yeast colonies were inoculated into sterile saline and adjusted to the turbidity of a 0.5 McFarland standard. Inoculums from Aspergillus strains were prepared by washing the surface of an agar slant with 1 mL of sterile saline containing 0.05% of Tween 20. The resulting colloidial suspensions were adjusted to an optical density of 0.09 to 0.11 at λ 625 nm.
(§5) Both the yeast and filamentous fungus suspensions were further diluted 1:100 in RPMI-1640 medium and dispensed into sterile reservoirs and used to inoculate the daughter plates. 10 μL of standardized inoculum was delivered into each well. This yielded a final cell concentration in the daughter plates of approximately 2.5×10^3 colony-forming units/mL. Plates were incubated at 35° C. for approximately 48 hr.
(§6) Following incubation, microplates were viewed from the bottom using a plate viewer.

[2] = system: C. parapsilosis 630 ATCC 90018; assay: MIC by broth microdilution against C. parapsilosis; format: cell-based
Procedure: as §1, §2, §3, §4, §5, §6

[3] = system: A. flavus 626 ATCC 64025; assay: MIC by broth microdilution against A. flavus; format: cell-based; details: 48 hr, growth reduction of 50%
Procedure: as §1, §2, §3, §4, §5, §6

[4] = system: C. albicans R303; assay: Mouse candidiasis infection model, C. albicans density in kidneys; format: in vivo, female CD-1 mice; details: for Difference from 24-hr control / Mean log10 CFU/kidneys (±SD) / Difference from 24-h control / Mean log10 CFU/kidneys (±SEM): kidneys at 24 hr; for Difference from 24-h control / Mean log10 CFU/kidneys (±SEM): Fourth run; for Reduction of yeast density in kidneys: 5 mg/kg dose, versus 24-hr infected control
Procedure: The objective of these studies was to evaluate the efficacy of test compounds in the mouse candidiasis infection model.
The strain, C. albicans R303 was transferred from frozen storage onto Sabauroud dextrose agar (SDA) plates and grown for ˜24 hr at 35° C. The inoculum was prepared by transferring colonies from the plate to phosphate buffered saline (PBS) and the concentration adjusted to 10^6 CFU/mL with the aid of a spectrophotometer. The stock was diluted 1:9 to prepare the inoculum. Prior to each run the concentration was verified using the dilution plate count method.
The female CD-1 mice used in this study were obtained from Charles River Laboratories, Portage, MI. The animals were approximately seven-weeks-old at the start of the study and weighed about 16-26 g.
In one approach, mice were made neutropenic with IP injections of cyclophosphamide (150 mg/kg in 10 mL/kg) at 4 and 1 day before inoculation. Each animal was inoculated with the appropriate concentration by injecting 0.1 mL of inoculum into a tail vein. The test compounds were administered IP at 2 hr after infection.
The kidneys were collected from four mice in control group 1 (untreated) at 2 hr after infection, and from the remaining mice in the study at 24 hr after infection. Kidneys were removed aseptically from each mouse and were combined in a sterile tube. An aliquot (2 mL) of sterile PBS was added to each tube and the contents homogenized with a tissue homogenizer (Polytron 3100). Serial dilutions of the tissue homogenates were conducted and 0.1 mL aliquots were spread on SDA plates and the plates incubated at 35° C. overnight. The CFU/kidneys were determined from colony counts. Data were analyzed using one-way ANOVA with the Tukey-Kramer Multiple Comparisons Test (GraphPad InStat version 3.06, GraphPad Software, San Diego, Calif.).
Treatments were administered at 2 hr after infection with 2.1×10^5 CFU/mL of the organism. Data are the means of four mice.
Treatments were administered at 2 hr after infection with 6.4×10^5 CFU/mL of the organism. Data are the means of four mice.
Treatments were administered at 2 hr after infection with 3.8×10^5 CFU/mL of the organism. Data are the means of four mice.
Treatments were administered at 2 hr after infection with 3.8×10^5 CFU/rnL of the organism. Data are the means of four mice.

[5] = First run, 1 mg/kg IP 2 hr after infection
[6] = First run, 1 mg/kg IP 2 hr after infection, neutropenic mice
[7] = 0.5 mg/kg IP 2 hr after infection
[8] = 1.5 mg/kg IP 2 hr after infection
[9] = 4.5 mg/kg IP 2 hr after infection
[10] = Second run, 1 mg/kg IP 2 hr after infection
[11] = First run, 5 mg/kg IP 2 hr after infection
[12] = First run, 5 mg/kg IP 2 hr after infection, neutropenic mice

SMILES | Difference from 24-hr control [4, 5] | Mean log10 CFU/kidneys (±SD) [4, 6] | MIC ([1]; 0% mouse serum, 48 hr) | MIC ([1]; 50% mouse serum, 48 hr) | MIC ([2]; 0% mouse serum, 48 hr) | MIC ([2]; 50% mouse serum, 48 hr) | MIC ([3]; 0% mouse serum) | MIC ([3]; 50% mouse serum) | Difference from 24-hr control [4, 11] | Mean log10 CFU/kidneys (±SD) [4, 12] | Reduction of yeast density in kidneys ([4]; First run) | other results
CC[C@H](C)C[C@H](C)CCCCCCCCC(=O)N[C@H]1C[C@@H](O)[C@@H](NCCN)NC(=O)[C@@H]2[C@@H](O)CCN2C(=O)[C@H]([C@H](O)CCN)NC(=O)[C@H]([C@H](O)[C@@H](O)c2ccc(O)cc2)NC(=O)[C@@H]2C[C@@H](O)CN2C(=O)[C@H]([C@@H](C)O)NC1=O [Caspofungin, caspofungin, reference compound] | −3.14*** log10 CFU/kidneys | 1.63 ± 0.29 log10 CFU/kidneys | – | – | – | – | – | – | – | – | – | MIC ([1]; Candida albicans, ATCC90028, 48 h, 0% mouse serum): 0.125 µg/mL (≈ 0.114 µM); MIC ([1]; Candida albicans, ATCC90028, 50% mouse serum, 48 hr, read-out: MIC): 0.06 µg/mL (≈ 0.0549 µM); MIC ([2]; Lodderomyces parapsilosis, ATCC90018, 48 h, 0% mouse serum, read-out: MIC): 0.5 µg/mL (≈ 0.457 µM); MIC ([2]; Lodderomyces parapsilosis, ATCC90018, 48 h, 50% mouse serum, read-out: MIC): 2 µg/mL (≈ 1.83 µM); MIC ([3]; Aspergillus flavus, ATCC64025, 0% mouse serum, read-out: MIC): 0.06 µg/mL (≈ 0.0549 µM); Difference from 24-h control [4, 7]: −4.88*** log10 CFU/kidneys; Mean log10 CFU/kidneys (±SEM) [4, 7]: 0.33 ± 0.33 log10 CFU/kidneys; Difference from 24-h control [4, 8]: −4.48*** log10 CFU/kidneys; Mean log10 CFU/kidneys (±SEM) [4, 8]: 0.73 ± 0.42 log10 CFU/kidneys; Difference from 24-h control [4, 9]: −5.20*** log10 CFU/kidneys; Mean log10 CFU/kidneys (±SEM) [4, 9]: 0.00 ± 0.00 log10 CFU/kidneys; Difference from 24-hr control [4, 10]: −3.59*** log10 CFU/kidneys; Mean log10 CFU/kidneys (±SD) [4, 10]: 1.61 ± 0.23 log10 CFU/kidneys
CCC(C)CC(C)CCCCCCCCC(=O)NC1CC(O)C(NCCNC(=O)OCCOC)NC(=O)C2C(O)CCN2C(=O)C(C(O)CCN)NC(=O)C(C(O)C(O)c2ccc(O)cc2)NC(=O)C2CC(O)CN2C(=O)C(C(C)O)NC1=O (centres unmarked) [Compound 1] | −0.13 ns log10 CFU/kidneys | 4.65 ± 0.26 log10 CFU/kidneys | 0.5 µg/mL (≈ 0.418 µM) | 1 µg/mL (≈ 0.837 µM) | 2 µg/mL (≈ 1.67 µM) | >16 µg/mL | 0.125 µg/mL (≈ 0.105 µM) | 0.5 µg/mL (≈ 0.418 µM) | −2.87*** log10 CFU/kidneys | 1.90 ± 0.21 log10 CFU/kidneys | 2.87 logs | –
CCC(C)CC(C)CCCCCCCCC(=O)NC1CC(O)C(NCCNC(=O)OCCOC)NC(=O)C2C(O)CCN2C(=O)C(C(O)CCNC(=O)OCCOC)NC(=O)C(C(O)C(O)c2ccc(O)cc2)NC(=O)C2CC(O)CN2C(=O)C(C(C)O)NC1=O (centres unmarked) [Compound 2] | 0.33 ns log10 CFU/kidneys | 5.10 ± 0.28 log10 CFU/kidneys | 4 µg/mL (≈ 3.08 µM) | >16 µg/mL | 16 µg/mL (≈ 12.3 µM) | >16 µg/mL | – | 4 µg/mL (≈ 3.08 µM) | 0.37 ns log10 CFU/kidneys | 5.14 ± 0.25 log10 CFU/kidneys | – | –
CCC(C)CC(C)CCCCCCCCC(=O)NC1CC(O)C(NCCNC(=O)CCCCCCCOCCOCCOCCOCCOCCOCCOCCOC)NC(=O)C2C(O)CCN2C(=O)C(C(O)CCNC(=O)CCCCCCCOCCOCCOCCOCCOCCOCCOCCOC)NC(=O)C(C(O)C(O)c2ccc(O)cc2)NC(=O)C2CC(O)CN2C(=O)C(C(C)O)NC1=O (centres unmarked) [Compound 4] | 0.48 ns log10 CFU/kidneys | 5.25 ± 0.09 log10 CFU/kidneys | 8 µg/mL (≈ 3.96 µM) | >16 µg/mL | >16 µg/mL | >16 µg/mL | 16 µg/mL (≈ 7.91 µM) | – | 0.60 ns log10 CFU/kidneys | 5.37 ± 0.11 log10 CFU/kidneys | – | –
CCCCCOc1ccc(-c2ccc(-c3ccc(C(=O)NC4CC(O)C(OCCOCCOCCOCCOC)NC(=O)C5C(O)C(C)CN5C(=O)C(C(C)O)NC(=O)C(C(O)C(O)c5ccc(O)cc5)NC(=O)C5CC(O)CN5C(=O)C(C(C)O)NC4=O)cc3)cc2)cc1 (centres unmarked) [Compound 5] | 0.00 ns log10 CFU/kidneys | 4.77 ± 0.06 log10 CFU/kidneys | 2 µg/mL (≈ 1.5 µM) | 2 µg/mL (≈ 1.5 µM) | >16 µg/mL | >16 µg/mL | 0.125 µg/mL (≈ 0.094 µM) | 0.5 µg/mL (≈ 0.376 µM) | −1.76*** log10 CFU/kidneys | 3.01 ± 0.41 log10 CFU/kidneys | 1.76 logs | –
CCCCCOc1ccc(-c2ccc(-c3ccc(C(=O)NC4CC(O)C(OCCCCCCOCCOCCOCCOCCOCCOCCOCCOC)NC(=O)C5C(O)C(C)CN5C(=O)C(C(C)O)NC(=O)C(C(O)C(O)c5ccc(O)cc5)NC(=O)C5CC(O)CN5C(=O)C(C(C)O)NC4=O)cc3)cc2)cc1 (centres unmarked) [Compound 7] | 0.50 ns log10 CFU/kidneys | 5.27 ± 0.17 log10 CFU/kidneys | 2 µg/mL (≈ 1.28 µM) | >16 µg/mL | >16 µg/mL | >16 µg/mL | 0.25 µg/mL (≈ 0.16 µM) | 2 µg/mL (≈ 1.28 µM) | 0.31 ns log10 CFU/kidneys | 5.08 ± 0.19 log10 CFU/kidneys | – | –
